Legend:
[1] = In vivo pharmacokinetic study in mice; parameters: species or system CD-1 male mice; settings: male, CD-1, mouse, plasma
Experimental: CD-1 male mice aged 7 to 10 weeks were selected. The doses for intravenous and oral administration were 1 mg/kg and 2.5 mg/kg, respectively. The mice were fasted for at least 12 hours before the administration, and resumed feeding 4 hours after the administration. The mice had free access to water throughout the assay period.
On the day of the assay, the animals in the intravenous group were administrated the corresponding compound through a single injection in the tail vein at an administration volume of 5 mL/kg; the oral group were administrated the corresponding compound through a single intragastric gavage at an administration volume of 10 mL/kg. The animals were weighed before administration, and the administration volume was calculated based on the body weight. The time for collecting samples was: 0.083 (the injection group), 0.25, 0.5, 1, 2, 4, 8, 24 h. About 30 μL of whole blood was collected from the saphenous vein at each time point to prepare plasma for concentration determination by high-performance liquid chromatography-tandem mass spectrometry (LC-MS/MS). All animals were euthanized by CO2 anesthesia after collecting the PK samples at the last time point. The plasma concentrations were processed by non-compartmental model of WinNonlin™ Version 6.3 (Pharsight, Mountain View, Calif.) pharmacokinetic software, and the pharmacokinetic parameters were calculated by the linear logarithm trapezoidal method.

[2] = test system: human biphenotypic B bone marrow mononuclear leukemia cell MV4-11 subcutaneous xenograft tumor; assay: Inhibition of MV4-11 subcutaneous xenograft tumor in vivo; parameters: species or system nude mice
Experimental: In this assay, the anti-tumor effect of the compounds was evaluated using a nude mice model of subcutaneous xenograft tumor of human biphenotypic B bone marrow mononuclear leukemia cell MV4-11.
Human biphenotypic B bone marrow mononuclear leukemia cell MV4-11 was cultured in vitro in suspension with a RPMI1640 medium supplemented with 10% fetal bovine serum, 100 U/mL penicillin and 100 μg/mL streptomycin in a 5% CO2 cell incubator at 37° C. Routine passaging was performed twice a week. Cells in the logarithmic growth phase were collected, counted and then used for inoculation.
10×10^6 MV4-11 cells were inoculated subcutaneously on the back of the right neck of each mouse, wherein the inoculation volume was 0.2 mL, and the cell suspension was PBS plus matrigel (volume ratio 1:1). The assay of efficacy in vivo was performed on the 13th day after the cell inoculation, at which time the average tumor volume reached 181 mm^3. The mice were randomly divided into groups with 6 mice in each group, and administration to the mice started.
The diameter of the tumor was measured with vernier calipers twice a week. The formula for calculating the tumor volume is: V=0.5a×b^2, where a and b represent the long and short diameters of the tumor, respectively.
After 14 days of administration, the administration was stopped, and the rebound of the tumor was observed.

[3] = 5 mg/kg oral once a day for 14 days, then drug withdrawal

AUC(0-t) ([1]; iv, injection 1 mg/kg): 0.604 µM·h
clearance ([1]; iv, injection 1 mg/kg): 48.5 mL/min/kg
half-life ([1]; iv, injection 1 mg/kg): 2.4 h
Vd ([1]; iv, injection 1 mg/kg, read-out: Vdss): 8.63 L/kg
AUC(0-t) ([1]; oral administration 2.5 mg/kg): 0.598 µM·h
bioavailability ([1]; oral administration 2.5 mg/kg): 37.3%
half-life ([1]; oral administration 2.5 mg/kg): 4.41 h
SMILES: CCc1nc(C(N)=O)c(Nc2ccc(N3CCC4(CCN(C)CC4)CC3)c(C)c2)nc1NC1CCOCC1
% Inhibition rate on day 14 ([2]; 5 mg/kg oral once a day): 119%
Average tumor volume Day 14 ([2]; 5 mg/kg oral once a day): 32 cubic millimeter
Average tumor volume Day 25 [2, 3]: 234 cubic millimeter
Average tumor volume Day 35 [2, 3]: 849 cubic millimeter
Average tumor volume Day 0 ([2]; baseline at start of dosing, 5 mg/kg oral once a day group): 181 cubic millimeter

From US11691974B2, “3,9-diazaspiro[5,5]undecane compound as FLT3 and AXL inhibitors” (MEDSHINE DISCOVERY INC., priority 2018, dated 2023)
